Experimental data taken from patent publication US5430045A, “Method of reducing or preventing bone marrow hypoplasia” (Free Radical Sciences, Inc., priority 1993, dated 1995).
Several values for one entry are separate records, joined by “and”; a condition that tells them apart may be missing. Identical values can stand only once. Blank lines part the entries; values can stand above or below the molecule they belong to.

Legend:
[1] = tested on: bone marrow; test: Bone marrow smear differential and M:E ratio, Example 2; type: in vivo, mice
Method: (§1) One femur from each mouse was removed and transversely halved. One half was preserved in 10% neutral buffered formalin, then submitted to a histology department for further preparation. The other half of the femur was used to prepare bone marrow smears. […] Prepared slides for bone sections and bone marrow smears were stained (Diff-Quik®) and the smears and sections were evaluated microscopically.
(§2) The difference between the means for groups 3 and 5 and the difference between the means for groups 4 and 6 were compared to the control delta. The significance of the two individual comparisons is designated in the summary statistics listing. Pairwise comparisons of the mean response for group 2 to group 1, group 3 to group 1, group 4 to group 1, group 5 to group 2, and group 6 to group 2 were also performed. The significance of these five comparisons was designated in the summary statistics listing. In total, the significance of seven statistical comparisons (two on the mean differences and five on the mean responses) are indicated in the summary statistics listing.
(§3) Statistical analysis of bone marrow data included an analysis of the results from bone marrow smears (differential count and M:E ratio), analysis of the histopathologic characterization data for bone marrow cellularity, analysis of the bone marrow cellularity on the day of necropsy, analysis of the results of the hematopoietic colony forming assays (based on 10^4 mononuclear bone marrow (cells/dish), and analysis of the number of colony forming units represented per femur (cellularity data multiplied by colony forming data).

[2] = tested on: femoral bone marrow; test: Histopathology of femoral bone marrow sections, Example 2; type: in vivo, mice
Method: (§4) Animals were weighed (not fasted) on study day 59 and euthanized, and specimens were collected as described.
as §1

[3] = tested on: peripheral blood; design: species or system mice; details: mouse, in vivo
Method: An eight week evaluation of the potential for oral Procysteine® to modulate AZT-induced hematologic toxicity in mice was conducted. As noted above, AZT-related bone marrow toxicity, and resultant bone marrow hypoplasia, limits the utility of this drug.
as §4
On study day 59, surviving mice were deeply anesthetized with methoxyflurane in a bell jar. While the mice were deeply anesthetized, blood for hematological analysis was obtained via cardiac puncture using needles/syringes coated with K3 EDTA. While deeply anesthetized, the mice were then euthanized by exsanguination followed by cervical dislocation. Then, bone marrow smears and aspirates were prepared and liver and kidneys were collected as subsequently described in this report.
The following hematology assays were conducted:
Statistical tests were performed at α≈0.01. Listings of the individual data were provided. Summary statistics by sex (mean, standard error and sample size) were provided for the responses for each group and for the differences between groups 1 and 2, between groups 3 and 5 and between groups 4 and 6. The average across weekly intervals for body weight change from study day 3 was analyzed. The average across weekly intervals for food consumption starting with the interval between days 3-4 were analyzed. The model included factors for block, sex and group effects and the group by sex interaction. the interactions with block effect were assumed negligible. Data for both sexes were included in one model to get an overall estimate of the residual standard deviation used in the statistical comparisons.
as §2

[4] = GSH concentrations in blood, liver and kidney by HPLC, Example 2; type: in vivo, mice
[5] = tested on: bone marrow; test: Bone marrow smear differential, cells/femur and myeloid:erythroid ratio, Example 1; type: in vivo, mice
Method: Prepared slides were stained and evaluated microscopically.
Statistical tests were performed at the α level of 0.01. Listing of the individual data and summary statistics (mean, standard error and sample size) was provided. The average body weight changes from study day 3 for study days 4-10 and 11-17 and average food consumption for study days 4-10 and 11-17 was analyzed. […] Specifically, the interaction of AZT and procysteine® was evaluated.
Microscopic analysis of the bone marrow smears was conducted by evaluating 500 cells for the differential analysis and 500 cells for the myeloid: erythroid ratio.

[6] = tested on: bone marrow; test: Nucleated cells per femur (bone marrow cells before plating), Example 1; type: in vivo, mice; details: for Nucleated Cells/Femur: M,F,combined in turn
Method: (§5) Populations of bone marrow colony forming cells were evaluated. Bone marrow was collected and the stem cell assay conducted, as follows: one femur per mouse was cut at the distal and proximal ends. Using a syringe and 25 gauge needle, 5 mL of IMDM media was flushed through the femur into a collection tube (2.5 mL flushed into one end, then 2.5 ml into the other end). The tube was washed using Iscove's Modified Dulbecco's Media containing 20% fetal bovine serum and the cell concentration was adjusted to the desired count for the colony assay.
(§6) Terminal blood was evaluated for hematological effects, and bone marrow smears and aspirates were counted and 10^4 nucleated cells of the aspirate were cultured 14 days to assess hematopoietic progenitor cells.

[7] = tested on: peripheral blood; design: species or system mice; details: mouse, in vivo; remark: listed apart in the source
Method: On study day 17, the animals were anesthetized with methoxyflurane (in a bell jar). When deeply anesthetized, blood was obtained by cardiac puncture and transferred for hematological analysis into tubes containing an EDTA suspension.
The following hematologic assays were conducted.
Statistical tests were performed at the α level of 0.01. Listing of the individual data and summary statistics (mean, standard error and sample size) was provided. The average body weight changes from study day 3 for study days 4-10 and 11-17 and average food consumption for study days 4-10 and 11-17 was analyzed.

[8] = tested on: bone marrow colony forming cells; test: Hematopoietic progenitor colony forming assay of bone marrow, Example 1; design: species or system mice; details: mouse, in vivo
Method: as §5
In triplicate, the marrow cells were put into a mixture of methylcellulose and plated into 35 mm diameter dishes. The dishes were incubated approximately 2 weeks (37° C., 5% CO2, 100% relative humidity) then manually scored under a microscope for myeloid, erythroid, and mixed colonies.
as §6

[9] = tested on: bone marrow; test: Nucleated cells/femur and colony forming cells, Example 2; type: in vivo, mice
Method: Bone marrow colony-forming cells were evaluated. During necropsy, one femur per mouse was cut at the distal and proximal ends. Using a syringe and 25 G needle, 5 ml of Iscove's Modified Dulbecco's Media (IMDM) was flushed through the femur into a collection tube (2.5 ml flushed into one end, then 2.5 ml into the other end). The tube was washed using IMDM containing 20% fetal bovine serum and the cell concentration was adjusted to the desired count for the colony assay. In triplicate, the marrow cells were put into a mixture of methylcellulose, stem cell factor, interleukin-3, granulocyte macrophage--colony stimulating factor, and erythropoietin, and plated into 35 mm diameter dishes. The dishes were incubated 10 days (37° C., 5% CO2, 100% relative humidity) then manually scored under a light microscope for myeloid (white), erythroid (red), and mixed colonies.
as §3

[10] = Histopathology of adrenal, skin and tail, Example 2; design: species or system mice; details: mouse, in vivo
[11] = 8 weeks, no AZT, F (N 9), M (N 10) in turn
[12] = 8 weeks, AZT 50/day, F, M in turn
[13] = 8 weeks, AZT 500/day, F, M in turn
[14] = AZT 50 mg/kg/day, M,F,combined in turn
[15] = AZT 500 mg/kg/day, M,F,combined in turn

HCT [3]: 39.6%
MCV [3]: 51 fL
Retic [3]: 1.4%
WBC [3]: 2.1 10^3 /μl
SMILES: O=C1N[C@H](C(=O)O)CS1 [Procysteine]
erythroid series cells ([1]; female mice): only a mild decrease
myeloid series cells ([1]; female mice): no meaningful alterations
bone marrow status ([1]; male mice): normal bone marrows
Bizarre Mitotic Figures (number of mice) [2, 11]: 0
Erythroid Hypoplasia (number of mice) [2, 11]: 0
General Hypoplasia (number of mice) [2, 11]: 0
Hemosiderin (number of mice) [2, 11]: 0
Normal bone marrow (number of mice) [2, 11]: 9 and 10
AZT-induced bone marrow pathology / hypoplasia ([2]; eight weeks of cotreatment): significantly ameliorated
blood GSH concentrations vs AZT-only treated groups ([4]; at 0, 50, and 500 mg/kg/day AZT): higher
Bone Marrow-Miscellaneous Cells % ([5]; no AZT, M,F,combined in turn): 1.0% and 1.2% and 1.1%
Lymphocyte ([5]; no AZT, M,F,combined in turn): 0.130 /Femur × 10**6 and 0.141 /Femur × 10**6 and 0.135 /Femur × 10**6
Myeloid:Erythroid Ratio ([5]; no AZT, M,F,combined in turn): 1.59 and 1.58
Nucleated Cells/Femur ([6]; no AZT): 12.8 ×10**6 and 12.0 ×10**6 and 12.4 ×10**6

SMILES: Cc1cn([C@H]2C[C@H](N=[N+]=[N-])[C@@H](CO)O2)c(=O)[nH]c1=O [AZT]
mean corpuscular volume, mean corpuscular hemoglobin, incidence of polychromasia, anisocytosis, macrocytes and Howell-Jolly bodies [7]: increases
total hemoglobin concentration, hematocrit and erythrocyte counts [7]: significant (p<0.01) decreases
erythroid cells in bone marrow smears ([1]; male and female): significant reduction
metarubricytes (nonproliferating) and rubriblasts ([1]; male and female): significantly reduced
total proliferating myeloid and total myeloid cells ([1]; male and female): significantly increased
Bizarre Mitotic Figures (number of mice) [2, 12]: 0
Erythroid Hypoplasia (number of mice) [2, 12]: 10 and 6
General Hypoplasia (number of mice) [2, 12]: 1
Hemosiderin (number of mice) [2, 12]: 0
Erythroid Hypoplasia (number of mice) [2, 13]: 9 and 8
Hemosiderin (number of mice) [2, 13]: 4 and 2
erythroid or general bone-marrow-hypoplasia ([2]; both doses, both sexes): 36/39
erythroid hypoplasia ([2]; female mice): 19/20
erythroid hypoplasia ([2]; male mice): 14/19
HCT [3]: significant decrease
MCV and MCH [3]: Significant increases
RBC and HGB [3]: Significant decreases
platelets [3]: significant increases
total colonies and colony forming units-granulocyte/macrophage [8]: significant induction
Blood GSH ([4]; mouse, in vivo): significantly decreased with increasing AZT dose
Bone Marrow-Miscellaneous Cells % [5, 14]: 0.4% and 0.5%
Lymphocyte [5, 14]: 0.047 /Femur × 10**6 and 0.046 /Femur × 10**6
Bone Marrow-Miscellaneous Cells % [5, 15]: 0.2%
Lymphocyte [5, 15]: 0.022 /Femur × 10**6 and 0.015 /Femur × 10**6 and 0.019 /Femur × 10**6
metarubricytes (nonproliferating) ([5]; bone marrow smears): marked reduction
rubriblasts ([5]; bone marrow smears): mild reduction
total count of erythroid series cells ([5]; bone marrow smears): reduced total count
nonproliferating compartment of the myeloid series ([5]; mouse, in vivo): reduction
proliferating compartment of the myeloid series ([5]; mouse, in vivo): significantly increased
Nucleated Cells/Femur ([6]; AZT 50 mg/kg/day): 11.7 ×10**6 and 9.9 ×10**6 and 10.8 ×10**6
Nucleated Cells/Femur ([6]; AZT 500 mg/kg/day): 10.5 ×10**6 and 8.8 ×10**6 and 9.6 ×10**6
nucleated cells of bone marrow aspirates ([6]; AZT and high-dose AZT/Procysteine, vs controls): significant reduction
total number of colonies ([9]; both high dose AZT groups): significant increases
Nucleated Cells/Femur ([9]; males and females, high dose AZT ± Procysteine, vs controls): significantly decreased
epidermal melanin-like pigment of tail [10]: accumulation of epidermal melanin-like pigment
